Earlier results on one compound are cited in US20240390366A1, “FORMULATION AND METHOD FOR TOPICAL TREATMENT OF MYCOBACTERIUM ULCERANS IN BURULI ULCERS” (priority 2021, published 2024).

With `CC(C)/N=c1\cc2n(-c3ccc(Cl)cc3)c3ccccc3nc-2cc1Nc1ccc(Cl)cc1` [Clofazimine, clofazimine], the solubility in water result is reported as “practically insoluble”.
